From patent publication US6680334B2, “Crystalline material” (Pfizer Inc, priority 2001, dated 2004)
Converted amounts (≈) assume the structure as drawn.

Legend:
[1] = assay type: physicochemical
Method: The stability of crystalline amlodipine free base bulk and amlodipine free base tablets was assessed by storing samples for up to 6 or 12 weeks at 25° C./60% RH, 40° C./75% RH and 50° C./20% RH. Changes were monitored using a stability-indicating HPLC method. Results were calculated by normalised peak area (npa). Degradants were identified by comparison of their relative retention times against impurity standards.

[2] = Solubility in aqueous buffers of different pH; assay type: physicochemical; settings: for solubility: aqueous buffer

## CCOC(=O)C1=C(COCCN)NC(C)=C(C(=O)OC)C1c1ccccc1Cl (stereo not shown) [crystalline amlodipine free base, 2-[(2-aminoethoxy)]-methyl-4-(2-chlorophenyl)-3-ethoxycarbonyl-5-methoxycarbonyl-6-methyl-1,4-dihydropyridine]
[1]
  Stability with respect to formation of known and unknown degradants: stability was demonstrated

## CCOC(=O)C1=C(COCCN)NC(C)=C(C(=O)OC)C1c1ccccc1Cl (racemic) [Example 2, Amlodipine]
[2]; pH 1.2, simulated gastric fluid, SGN pH: 1.20
  solubility: > 5000 µg/mL
[2]; Acetate pH: 5.93
  solubility: > 5000 µg/mL
[2]; Glycine pH: 9.25
  solubility: 130 µg/mL (≈ 318 µM)
[2]; NaOH pH: 11.44
  solubility: < 50 µg/mL
[2]; Phosphate pH: 7.71
  solubility: 720 µg/mL (≈ 1760 µM)

## CCOC(=O)C1=C(COCCN)NC(C)=C(C(=O)OC)C1c1ccccc1Cl (stereo not shown) [solid free base initially synthesised, Amlodipine, reference compound]
[2]; solid free base initially synthesised in-house, no conditions given
  Solubility (in words): poorly soluble
